Source: patent US7491819B1 (priority 2004, dated 2009)

What follows are molecules tested against T1, HIV-integrase (Human immunodeficiency virus type 1 group M subtype B, UniProt P12497) (assay: HIV-Integrase Inhibition Activity (SPA bead strand-transfer assay)). Conditions: Table 1; read-out: Activity (HIV-integrase inhibition, IC50 class).
T1 construct: Recombinant integrase (0.26 ng) was incubated with the beads
Assay type: biochemical
Method in brief: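 Strand-transfer read-out: CPM from P33-labelled target DNA (0.1 fmol) joined to bead-bound biotin substrate DNA (5 pmole), with EDTA stop at 10 mM final. Integrase (0.26 ng) prebound to streptavidin SPA beads 90 min, 37° C, and washed before adding inhibitor.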

Question: How did the IC50 turn out when `CC1(C)OCCn2c1nc(C(=O)NCc1ccc(F)cc1Cl)c(O)c2=O` [Example 36, Pyrimido[2,1-c][1,4]oxazine-2-carboxamide, N-[(2-chloro-4-fluorophenyl)methyl]-4,6,7,9-tetrahydro-3-hydroxy-9,9-dimethyl-4-oxo-] was run?
Answer: 2 to 100 nM

Question: Which IC50 does the source give for `Cc1cc(CNC(=O)c2nc3n(c(=O)c2O)CCCOC3(C)C)ccc1F` [Example 45, 6H-Pyrimido[2,1-c][1,4]oxazepine-2-carboxamide, N-[(4-fluoro-3-methylphenyl)methyl]-4,7,8,10-tetrahydro-3-hydroxy-10,10-dimethyl-4-oxo-] here?
Answer: 2 to 100 nM

Question: `CC1(C)OCCn2c1nc(C(=O)NCc1ccccc1-c1ccc(C(N)=O)cc1)c(O)c2=O` [Example 173, Pyrimido[2,1-c][1,4]oxazine-2-carboxamide, N-[[4′-(aminocarbonyl)[1,1′-biphenyl]-2-yl]methyl]-4,6,7,9-tetrahydro-3-hydroxy-9,9-dimethyl-4-oxo-] was tested. Which IC50 did it give?
Answer: 2 to 100 nM

Question: For `CC(C)Oc1cccc(CNC(=O)c2nc3n(c(=O)c2O)CCOC3(C)C)c1` [Example 263, Pyrimido[2,1-c][1,4]oxazine-2-carboxamide, 4,6,7,9-tetrahydro-3-hydroxy-9,9-dimethyl-N-[[3-(1-methylethoxy)phenyl]methyl]-4-oxo-], which IC50 is on record?
Answer: 2 to 100 nM

Question: With `CC1(C)OCCn2c1nc(C(=O)NCc1ccc(F)c(F)c1)c(O)c2=O` [Example 33, Pyrimido[2,1-c][1,4]oxazine-2-carboxamide, N-[(3,4-difluorophenyl)methyl]-4,6,7,9-tetrahydro-3-hydroxy-9,9-dimethyl-4-oxo-] as the molecule, how does the IC50 read?
Answer: 2 to 100 nM

Question: `CCc1cc(CNC(=O)c2nc3n(c(=O)c2O)CCOC3(C)C)ccc1F` [Example 247, Pyrimido[2,1-c][1,4]oxazine-2-carboxamide, N-[(3-ethyl-4-fluorophenyl)methyl]-4,6,7,9-tetrahydro-3-hydroxy-9,9-dimethyl-4-oxo-] was tested. Which IC50 did it give?
Answer: 2 to 100 nM

Question: For `CC1(C)OCCn2c1nc(C(=O)NCc1cc(F)ccc1F)c(O)c2=O` [Example 224, Pyrimido[2,1-c][1,4]oxazine-2-carboxamide, N-[(2,5-difluorophenyl)methyl]-4,6,7,9-tetrahydro-3-hydroxy-9,9-dimethyl-4-oxo-], which IC50 is on record?
Answer: 2 to 100 nM

Question: How did the IC50 turn out when `CC1(C)OCCn2c1nc(C(=O)NCc1ccccc1-c1ccc(C#N)cc1)c(O)c2=O` [Example 166, Pyrimido[2,1-c][1,4]oxazine-2-carboxamide, N-[(4′-cyano[1,1′-biphenyl]-2-yl)methyl]-4,6,7,9-tetrahydro-3-hydroxy-9,9-dimethyl-4-oxo-] was run?
Answer: 100 to 1000 nM

Question: Which IC50 does the source give for `Cc1[nH]c2ccc(CNC(=O)c3nc4n(c(=O)c3O)CCOC4(C)C)cc2c1C` [Example 144, Pyrimido[2,1-c][1,4]oxazine-2-carboxamide, N-[(2,3-dimethyl-1H-indol-5-yl)methyl]-4,6,7,9-tetrahydro-3-hydroxy-9,9-dimethyl-4-oxo-] here?
Answer: 100 to 1000 nM

Question: With `CN(C)CC#Cc1cc(F)ccc1CNC(=O)c1nc2n(c(=O)c1O)CCOC2(C)C` [Example 91, Pyrimido[2,1-c][1,4]oxazine-2-carboxamide, N-[[2-[3-(dimethylamino)-1-propynyl]-4-fluorophenyl]methyl]-4,6,7,9-tetrahydro-3-hydroxy-9,9-dimethyl-4-oxo-] as the molecule, how does the IC50 read?
Answer: 2 to 100 nM

Question: For `CC1(C)OCCn2c1nc(C(=O)NCc1ccc(F)cc1C#CCOS(C)(=O)=O)c(O)c2=O` [Example 90, Pyrimido[2,1-c][1,4]oxazine-2-carboxamide, N-[[4-fluoro-2-[3-[(methylsulfonyl)oxy]-1-propynyl]phenyl]methyl]-4,6,7,9-tetrahydro-3-hydroxy-9,9-dimethyl-4-oxo-], which IC50 is on record?
Answer: 2 to 100 nM

Question: `Cc1cc(CNC(=O)c2nc3n(c(=O)c2O)CCOC3(C)C)ccc1F` [Example 20, Pyrimido[2,1-c][1,4]oxazine-2-carboxamide, N-[(4-fluoro-3-methylphenyl)methyl]-4,6,7,9-tetrahydro-3-hydroxy-9,9-dimethyl-4-oxo-] was tested. Which IC50 did it give?
Answer: 2 to 100 nM

Question: `CC1(C)OCCn2c1nc(C(=O)NCc1ccc(F)c(Br)c1)c(O)c2=O` [Example 30, Pyrimido[2,1-c][1,4]oxazine-2-carboxamide, N-[(3-bromo-4-fluorophenyl)methyl]-4,6,7,9-tetrahydro-3-hydroxy-9,9-dimethyl-4-oxo-] was tested. Which IC50 did it give?
Answer: 2 to 100 nM

Question: For `Cc1cc(CNC(=O)c2nc3n(c(=O)c2O)CCOC3C(C)C)ccc1F` (stereo not drawn) [Example 18, Pyrimido[2,1-c][1,4]oxazine-2-carboxamide, N-[(4-fluoro-3-methylphenyl)methyl]-4,6,7,9-tetrahydro-3-hydroxy-9-(1-methylethyl)-4-oxo-], which IC50 is on record?
Answer: 2 to 100 nM

Question: Which IC50 does the source give for `COc1cccc(-c2ccccc2CNC(=O)c2nc3n(c(=O)c2O)CCOC3(C)C)c1` [Example 164, Pyrimido[2,1-c][1,4]oxazine-2-carboxamide, 4,6,7,9-tetrahydro-3-hydroxy-N-[(3′-methoxy[1,1′-biphenyl]-2-yl)methyl]-9,9-dimethyl-4-oxo-] here?
Answer: 2 to 100 nM

Question: `Cc1ccc(C)c(CNC(=O)c2nc3n(c(=O)c2O)CCOC3(C)C)c1` [Example 269, Pyrimido[2,1-c][1,4]oxazine-2-carboxamide, N-[(2,5-dimethylphenyl)methyl]-4,6,7,9-tetrahydro-3-hydroxy-9,9-dimethyl-4-oxo-] was tested. Which IC50 did it give?
Answer: 2 to 100 nM

Question: `Cc1cc(Cl)ccc1CNC(=O)c1nc2n(c(=O)c1O)CCOC2(C)C` [Example 272, Pyrimido[2,1-c][1,4]oxazine-2-carboxamide, N-[(4-chloro-2-methylphenyl)methyl]-4,6,7,9-tetrahydro-3-hydroxy-9,9-dimethyl-4-oxo-] was tested. Which IC50 did it give?
Answer: 2 to 100 nM

Question: Which IC50 does the source give for `CN(C)C(=O)COc1cc(F)ccc1CNC(=O)c1nc2n(c(=O)c1O)CCOC2(C)C` [Example 98, Pyrimido[2,1-c][1,4]oxazine-2-carboxamide, N-[[2-[2-(dimethylamino)-2-oxoethoxy]-4-fluorophenyl]methyl]-4,6,7,9-tetrahydro-3-hydroxy-9,9-dimethyl-4-oxo-] here?
Answer: 2 to 100 nM

Question: How did the IC50 turn out when `CCOc1cccc(CNC(=O)c2nc3n(c(=O)c2O)CCOC3(C)C)c1` [Example 249, Pyrimido[2,1-c][1,4]oxazine-2-carboxamide, N-[(3-ethoxyphenyl)methyl]-4,6,7,9-tetrahydro-3-hydroxy-9,9-dimethyl-4-oxo-] was run?
Answer: 2 to 100 nM

Question: How did the IC50 turn out when `CS(=N)c1cc(F)ccc1CNC(=O)c1nc2n(c(=O)c1O)CCOC2(C)C` (stereo not drawn) [Example 103, Pyrimido[2,1-c][1,4]oxazine-2-carboxamide, N-[[4-fluoro-2-(S-methylsulfinimidoyl)phenyl]methyl]-4,6,7,9-tetrahydro-3-hydroxy-9,9-dimethyl-4-oxo-] was run?
Answer: 2 to 100 nM

Question: With `CC1(C)OCCn2c1nc(C(=O)NCc1ccc(F)cc1N1CCCCS1(=O)=O)c(O)c2=O` [Example 27, Pyrimido[2,1-c][1,4]oxazine-2-carboxamide, N-[[4-fluoro-2-(tetrahydro-1,1-dioxido-2H-1,2-thiazin-2-yl)phenyl]methyl]-4,6,7,9-tetrahydro-3-hydroxy-9,9-dimethyl-4-oxo-] as the molecule, how does the IC50 read?
Answer: 2 to 100 nM

Question: Which IC50 does the source give for `COc1cc(Cl)ccc1-c1ccccc1CNC(=O)c1nc2n(c(=O)c1O)CCOC2(C)C` [Example 161, Pyrimido[2,1-c][1,4]oxazine-2-carboxamide, N-[(4′-chloro-2′-methoxy[1,1′-biphenyl]-2-yl)methyl]-4,6,7,9-tetrahydro-3-hydroxy-9,9-dimethyl-4-oxo-] here?
Answer: 2 to 100 nM

Question: With `CN(C)CCN(C)C(=O)c1ncn(-c2cc(F)ccc2CNC(=O)c2nc3n(c(=O)c2O)CCOC3(C)C)n1` [Example 71, Pyrimido[2,1-c][1,4]oxazine-2-carboxamide, N-[[2-[3-[[[2-(dimethylamino)ethyl]methylamino]carbonyl]-1H-1,2,4-triazol-1-yl]-4-fluorophenyl]methyl]-4,6,7,9-tetrahydro-3-hydroxy-9,9-dimethyl-4-oxo-] as the molecule, how does the IC50 read?
Answer: 2 to 100 nM

Question: For `CC1(C)OCCn2c1nc(C(=O)NCc1ccccc1-c1ccc3[nH]ccc3c1)c(O)c2=O` [Example 177, Pyrimido[2,1-c][1,4]oxazine-2-carboxamide, 4,6,7,9-tetrahydro-3-hydroxy-N-[[2-(1H-indol-5-yl)phenyl]methyl]-9,9-dimethyl-4-oxo-], which IC50 is on record?
Answer: 2 to 100 nM

Question: For `CC1(C)OCCn2c1nc(C(=O)NCc1ccc(F)cc1-n1ccnc1)c(O)c2=O` [Example 53, Pyrimido[2,1-c][1,4]oxazine-2-carboxamide, N-[[4-fluoro-2-(1H-imidazol-1-yl)phenyl]methyl]-4,6,7,9-tetrahydro-3-hydroxy-9,9-dimethyl-4-oxo-], which IC50 is on record?
Answer: 2 to 100 nM

Question: With `CCCn1cc(-c2ccccc2CNC(=O)c2nc3n(c(=O)c2O)CCOC3(C)C)cn1` [Example 158, Pyrimido[2,1-c][1,4]oxazine-2-carboxamide, 4,6,7,9-tetrahydro-3-hydroxy-9,9-dimethyl-4-oxo-N-[[2-(1-propyl-1H-pyrazol-4-yl)phenyl]methyl]-] as the molecule, how does the IC50 read?
Answer: 2 to 100 nM

Question: For `CC(C)Oc1ccc(CNC(=O)c2nc3n(c(=O)c2O)CCOC3(C)C)cc1` [Example 145, Pyrimido[2,1-c][1,4]oxazine-2-carboxamide, 4,6,7,9-tetrahydro-3-hydroxy-9,9-dimethyl-N-[[4-(1-methylethoxy)phenyl]methyl]-4-oxo-], which IC50 is on record?
Answer: > 1000 nM

Question: `COCc1ccc(-c2ccccc2CNC(=O)c2nc3n(c(=O)c2O)CCOC3(C)C)cc1` [Example 181, Pyrimido[2,1-c][1,4]oxazine-2-carboxamide, 4,6,7,9-tetrahydro-3-hydroxy-N-[[4′-(methoxymethyl)[1,1′-biphenyl]-2-yl]methyl]-9,9-dimethyl-4-oxo-] was tested. Which IC50 did it give?
Answer: 2 to 100 nM

Question: For `CC1(C)OCCCn2c1nc(C(=O)NCc1ccccc1N1CCCCS1(=O)=O)c(O)c2=O` [Example 206, 6H-pyrimido[2,1-c][1,4]oxazepine-2-carboxamide, 4,7,8,10-tetrahydro-3-hydroxy-10,10-dimethyl-4-oxo-N-[[2-(tetrahydro-1,1-dioxido-2H-1,2-thiazin-2-yl)phenyl]methyl]-], which IC50 is on record?
Answer: 2 to 100 nM

Question: Which IC50 does the source give for `COc1ccc(CNC(=O)c2nc3n(c(=O)c2O)CCOC3(C)C)cc1` [Example 244, Pyrimido[2,1-c][1,4]oxazine-2-carboxamide, 4,6,7,9-tetrahydro-3-hydroxy-N-[(4-methoxyphenyl)methyl]-9,9-dimethyl-4-oxo-] here?
Answer: 2 to 100 nM
